Test results published in patent US12398102B2, “Formulation for soft anticholinergic analogs” (BODOR LABORATORIES, INC., priority 2014, dated 2025).

Key:
[1] = Stability of approximately 2% BBI-4000 in four solvent systems (HPLC); format: physicochemical; conditions: for BBI-4000 Assay, Change from Baseline (40° C./75%), reduction: Day 7
Method: Various formulations of approximately 2% BBI-4000 were made and their stabilities assessed. The solvent systems were as follows: • (a) solvent content: 100% water; • (b) solvent content: 60% water/40% ethanol; • (c) solvent content: 30% water/70% ethanol; • (d) solvent content: 100% ethanol. Each sample was assessed at baseline; after 7 days at 25° C./60% humidity; and after 7 days at 40° C./75% humidity. The percentage change from baseline for 40° C. after 7 days was calculated in each case. HPLC analysis was conducted as described in EXAMPLE 2 below.
There is clearly a dramatic difference in the stability of the anhydrous ethanol formulation compared to the water-containing formulations.

[2] = HPLC assay and impurities of aqueous BBI-4000 gel formulations at differing pH; format: physicochemical; conditions: Day 7
Method: The standards were prepared in duplicate by weighing 2.0±0.1 mg of BBI-4000 into 1 mL volumetric flasks. Dissolved and diluted to volume with acetonitrile and mixed by inversion.
Gel samples were prepared in duplicate at a target concentration of 2 mg/ml in a 5-mL volumetric flask. Added 1.5 ml H2O and mixed to disperse the sample. Diluted to volume with acetonitrile and filtered an aliquot through a syringe filter.
The liquid chromatographic system was set-up as follows: • HPLC Column: XBridge Shield RP18, 4.6×150 mm, 3.5 μm • Column Temp.: 25±1° C. • Sample Temp.: ambient • Flow Rate: 1.5 mL/min • Injection Volume: 10 μL • UV Detection: 220 nm • Run Time: 20 minutes

[3] = Toxicokinetics (PK samples) in the 14-day Göttingen Minipig study; format: in vivo, Göttingen Minipigs
Method: (§1) All groups received 2 mL of gel formulation, once a day, for 14 consecutive days, applied to approximately 10% of their body surface area on their back.
(§2) The study included daily observations of the site of application and scoring of erythema and edema (if present), daily general examinations including heart rate as well as pupil size assessments at days 1, 2, 3, 5, 7, 10 and 14. The frequent observations of heart rate and pupil size were intended to identify any potential systemic anticholinergic effect. Main organs were evaluated during necropsy and histopathology evaluation was completed for treated and untreated skin. Blood samples for chemistry and hematology analysis were collected as well as PK samples.

[4] = system: subjects with axillary hyperhidrosis; assay: Study BBI-4000-CL-101: efficacy, gravimetric sweat production and HDSS; format: in vivo, human
Method: Efficacy was assessed by the change in gravimetrically measured sweat production and the change in hyperhidrosis disease severity scale (HDSS) from baseline to Day 15 (end of therapy).
For the gravimetric assessment, sweat production was measured by placing filter paper (pre-weighed) on the axilla for 5 minutes while the subject was in a semi-reclining position at room temperature. The filter paper was covered with plastic during exposure to the axilla, and was then weighed following the 5-minute exposure period to calculate the amount of sweat produced.
For the HDSS, subjects rated the severity of their hyperhidrosis on a 4-point scale (1,2, 3, or 4) based on the level of interference with their daily activities.

Göttingen Minipigs = assay: 14-day dermal and systemic toxicity study in Göttingen Minipigs; conditions: anhydrous composition, 14 days, dermal
Method: as §1, §2
The estimated BBI-4000 dose applied to the skin in this study was 40 mg/kg/day for Group 3 and 20 mg/kg/day for Group 2.

[5] = solvent 100% ethanol, Day 7 @ 25° C./60%

With `CCOC(=O)C[N@+]1(C)CCC(OC(=O)[C@](O)(c2ccccc2)C2CCCC2)C1.[Br-]` (stereo partly drawn) [BBI-4000, (2R,3′R) 3-(2-cyclopentyl-2-phenyl-2-hydroxyacetoxy)-1-(ethoxycarbonylmethyl)-1-methylpyrrolidinium bromide] the “Stability in words: baseline amount of BBI-4000 retained” value ([1]; 100% ethanol (absolute or anhydrous), 7 days at 40° C.) was “essentially maintained the baseline amount of BBI-4000”, the “BBI-4000 Assay, Change from Baseline (40° C./75%), reduction” value ([1]; solvent 30% water, 70% ethanol) was “reduction 5%” and the “BBI-4000 Main Hydrolysis Products (RRT-0.79-0.84)” value (“BBI-4000 Main Hydrolysis Products” for short) ([1]; solvent 30% water, 70% ethanol, Day 7 @ 25° C./60%) was 0.84%. For the same compound, the “BBI-4000 Main Hydrolysis Products” value ([1]; solvent 30% water, 70% ethanol, Day 7 @ 40° C./75%) was 3.50%, the “BBI-4000 Main Hydrolysis Products” value ([1]; solvent 30% water, 70% ethanol, baseline) was 0 and the “BBI-4000 Assay, Change from Baseline (40° C./75%), reduction” value ([1]; solvent 60% water, 40% ethanol) was “reduction 5%”. The “BBI-4000 Main Hydrolysis Products” value ([1]; solvent 60% water, 40% ethanol, Day 7 @ 25° C./60%) was 0.83%, the “BBI-4000 Main Hydrolysis Products” value ([1]; solvent 60% water, 40% ethanol, Day 7 @ 40° C./75%) was 3.40% and the “BBI-4000 Main Hydrolysis Products” value ([1]; solvent 60% water, 40% ethanol, baseline) was 0. For the same compound, the “BBI-4000 Assay, Change from Baseline (40° C./75%), reduction” value ([1]; solvent 100% ethanol) was “reduction <1%”, the “BBI-4000 Assay” value [1, 5] was 2% and the “BBI-4000 Main Hydrolysis Products” value [1, 5] was 0. For the same compound, the “BBI-4000 Main Hydrolysis Products” value ([1]; solvent 100% ethanol, Day 7 @ 40° C./75%) was 0, the “BBI-4000 Main Hydrolysis Products” value ([1]; solvent 100% ethanol, baseline) was 0 and the “BBI-4000 Assay, Change from Baseline (40° C./75%), reduction” value ([1]; solvent 100% water) was “reduction 9.5%”. The “BBI-4000 Main Hydrolysis Products” value ([1]; solvent 100% water, Day 7 @ 25° C./60%) was 1.90%, the “BBI-4000 Assay” value ([1]; solvent 100% water, Day 7 @ 40° C./75%) was 1.80% and the “BBI-4000 Main Hydrolysis Products” value ([1]; solvent 100% water, baseline) was 0. The “Stability of the aqueous formulation system, in words” value [2] was “lack of stability of this formulation system”, the “Time at which the highest concentration was observed” value ([3]; after Day-14 dosing, minipig receiving 20% BBI-4000) was 2 h and the “Systemic exposure (PK analysis)” value ([3]; dermal 10% and 20% gel, 14 days) was “variable, dose related systemic exposure”. For the same compound, the “Comparison of 10% gel and 5% gel (sweat reduction and HDSS improvement)” value ([4]; Cohort 2, small sample size, no definitive conclusion) was “BBI-4000 10% gel performed better than BBI-4000 5% gel”, the “Subjects reporting a >2-point improvement in HDSS” value ([4]; Day 15, 5% and 10% gel aggregated (8 of 12)) was 67% and the “Proportion of subjects with at least a 50% reduction in sweat production” value ([4]; Day 15, 5% and 10% gel aggregated (9 of 12)) was 75%. For the same compound, the “Histopathology analysis of treated skin” value (Göttingen Minipigs) was “unremarkable and identical to non-treated and vehicle treated skin”.
